“Also recorded” adds a separate entry of the source.

The source of these data is patent US20090215713A1, “Use of atp for the manufacture of a medicament for the prevention and treatment of oxidative stress and related conditions” (priority 2004, published 2009).

Assay [1] can be described thus: ESR measurement of DMPO—OH spin adducts during Fenton chemistry. It counts as biochemical.
Protocol: The effect of ATP on the formation or scavenging of hydroxyl radicals, generated by Fenton reagents was measured as DMPO—OH spin adducts in ESR spectra. The ESR studies were performed at room temperature using a Bruker EMX 1273 spectrometer equipped with an ER 4119HS high sensitivity cavity and 12 kW power supply. The following instrument conditions were used: scan range, 60 G; center magnetic field, 3490 G; modulation amplitude, 1.0 G; microwave frequency, 9.86 GHz; time constant, 40.96 ms, scan time, 20.48 ms; number of scans, 50. OH radicals were generated by the Fenton reaction, and 5,5-dimethyl-1-pyrroline N-oxide (DMPO) was used for trapping hydroxyl radicals. Fifty microliters of 10 mM H2O2, 50 μl of 250 mM DMPO, 50 μl milliQ, 50 μl milliQ (control) or sample, and 50 μl 5 mM FeSO4/5 mM EDTA were mixed, and then transferred to a capillary glass tube. After 2 minutes, DMPO—OH spin adducts were measured by ESR. Quantification of the spectra was performed by peak integration using the WIN-EPR spectrum manipulation program.
Electron spin resonance (ESR) studies were performed at room temperature using a Bruker EMX 1273 spectrometer equipped with an ER 4119HS high sensitivity cavity and 12 kW power supply. The following instrument conditions were used: scan range, 60 G; center magnetic field, 3490 G; modulation amplitude, 1.0 G; microwave frequency, 9.86 GHz; time constant, 40.96 ms, scan time, 20.48 ms; number of scans, 50. OH radicals were generated by the Fenton reaction, and 5,5-Dimethyl-1-pyrroline N-oxide (DMPO) was used for trapping hydroxyl radicals. Fifty microliters of 10 mM H2O2, 50 μl 250 mM DMPO, 50 μl milliQ, 50 μl milliQ (blanco) or sample and 50 μl 5 mM FeSO4/5 mM EDTA were mixed, transferred to a capillary glass tube and the DMPO—OH spin adducts were measured after 2 minutes by ESR. Quantification of the spectra (in arbitrary units) was performed by peak integration using the WIN-EPR spectrum manipulation program.
Assay [2] has as its system TNF-α. As to the kind of experiment: LPS+PHA-induced TNF-α secretion in whole blood from healthy subjects (ELISA). It counts as cell-based, human. The conditions noted are these: for effect of purinergic compound on LPS+PHA-induced TNF-α release: 300 μM, 24 h; for effect on inhibiting TNFα and stimulating IL-10 production: LPS-PHA stimulated whole blood, Experiment 4. The method, then:
FIG. 7 Effect of ATP on LPS+PHA-induced TNF-α secretion in whole blood from healthy subjects. The whole blood was exposed to 10 μg/ml LPS and 1 μg/ml PHA with indicated concentrations of ATP for 24 h. The TNF-α released into the supernatants was analyzed using the ELISA method. Results are expressed in percentage, 100% being the TNF-α release under stimulation by LPS+PHA without ATP. […] Data are expressed as the mean values; error bars represent SEM. *, different from control (stimulation by LPS+PHA without ATP) (P<0.05).
FIG. 13 Effect of different purinergic compounds on LPS+PHA-induced TNF-α secretion in whole blood. The whole blood was exposed to 10 μg/ml LPS and 1 μg/ml PHA with the indicated purinergic compounds at the concentration of 300 μM for 24 h. The TNF-α released into the supernatant was analyzed using the ELISA method. Results are expressed in percentage, 100% being the TNF-α release under stimulation by LPS+PHA without addition of a purinergic compound (control). […] The TNF-α release induced by LPS+PHA from whole blood was not inhibited by UTP, UDP or CTP. Data are expressed as the mean values; error bars represent SEM.
Blood was collected from 8 healthy subjects in heparin containing vacutainer tubes. All incubations were performed in duplicate. ATP was dissolved in RPMI 1640 culture medium, at a final concentration of 1-300 μM, and blood pre-incubated with ATP at 5% CO2 at 37 DC for 30 min. After stimulation with LPS en PHA (10 and 1 μg/ml final concentration, respectively), the plates were incubated in 5% CO2 at 37° C. for 24 h. Cell-free supernatant fluids were then collected by centrifugation (6000 rpm, 10 min at 4° C.) and stored at −20° C. until tested for presence of cytokines. All cytokines were quantified by means of PeliKine Compact human ELISA kits (CLB/Sanquin, The Netherlands), based on appropriate and validated sets of monoclonal antibodies.
Whole blood was collected and stimulated with LPS+PHA as described for Experiment 2. ATP, dissolved in RPMI 1640 culture medium, was added to the blood at a final concentration of 1-1000 μM. The agonists were added in the same way as ATP, however their stock solutions are prepared in PBS and further diluted in medium. All incubations are performed in duplicate.

The test system of assay [3] is mice bearing colon tumour. As to conditions: cited from earlier work; for effect on host weight loss: daily intraperitoneal injections of 25 mmol/L for 10 days.

As to `Nc1ncnc2c1ncn2[C@@H]1O[C@H](COP(=O)(O)OP(=O)(O)O)[C@@H](O)[C@H]1O` [ADP], the “effectiveness in preventing DMPO—OH formation relative to comparator” value in assay [1] (0.1 mM-10 mM) is “slightly less effective”. Besides, the “inhibition of the DMPO—OH spin adduct formation” value in assay [1] (highest concentration used (range 0.1 mM-10 mM)) is given as “≈ 70%”. Moreover, the “effect of purinergic compound on LPS+PHA-induced TNF-α release” value (shortened to “effect of purinergic compound”) in assay [2] is reported as “inhibited”.

Take `Nc1ncnc2c1ncn2[C@@H]1O[C@H](COP(=O)(O)O)[C@@H](O)[C@H]1O` [AMP]: the “effect on hydroxyl radicals” value in assay [1] (0.1, 0.3 and 1 mM) is listed as “no significant effect”; in assay [1] (3 and 10 mM), “reduction of hydroxyl radicals; also recorded: significant (P<0.05) reduction”. In assay [2], the “effect of purinergic compound” value is recorded as “inhibited”. In assay [3], the “effect on host weight loss” value was “significant inhibition”.

For the compound `Nc1ccn([C@@H]2O[C@H](COP(=O)(O)OP(=O)(O)OP(=O)(O)O)[C@@H](O)[C@H]2O)c(=O)n1` [CTP], in assay [2], the “effect of purinergic compound” value is “not inhibited”; the “effect on inhibiting TNFα and stimulating IL-10 production” value is given as “little or no effect”.

Take `O=c1ccn([C@@H]2O[C@H](COP(=O)(O)OP(=O)(O)O)[C@@H](O)[C@H]2O)c(=O)[nH]1` [UDP]: in assay [2], the “effect of purinergic compound” value was “not inhibited”; the “effect on inhibiting TNFα and stimulating IL-10 production” value is “little or no effect”.

Consider `O=c1ccn([C@@H]2O[C@H](COP(=O)(O)OP(=O)(O)OP(=O)(O)O)[C@@H](O)[C@H]2O)c(=O)[nH]1` [UTP], for which, in assay [2], the “effect of purinergic compound” value is listed as “not inhibited”; the “effect on inhibiting TNFα and stimulating IL-10 production” value was “little or no effect”.

As to `Nc1ncnc2nc[nH]c12` [adenine], the “effect on DMPO—OH spin adduct formation / hydroxyl radicals” value in assay [1] (1 mM) is on record as “little or no effect; also recorded: no significant (P<0.05) effect”.

For `Nc1ncnc2c1ncn2[C@@H]1O[C@H](CO)[C@@H](O)[C@H]1O` [adenosine], in assay [2], the “effect of purinergic compound” value was “least inhibition”. Moreover, in assay [3] (adenosine without phosphate), the “inhibition of host weight loss of tumour-bearing animals” value is on record as “ineffective”. Also, the “effect on host weight loss” value in assay [3] is on record as “significant inhibition”.
